Results published in paper PMC7738871, “Covalent modification of Keap1 at Cys77 and Cys434 by pubescenoside a suppresses oxidative stress-induced NLRP3 inflammasome activation in myocardial ischemia-reperfusion injury” (Theranostics, 2021).

Key:
[1] = target: T1, Keap1 C273S (Homo sapiens, UniProt Q14145, C273S); assay: ITC titration of PBA with Keap1-C273S; assay type: binding; details: 25 ℃
T1 construct: His (N); made in house; host or cells: E. coli BL21 (DE3)
Procedure: The Keap1 was amplified by PCR using a human cDNA library, and was subcloned into the vector pET28-TEV, which contained one tobacco etch virus (TEV) protease cleavage site at the upstream multiple cloning site. The protein was expressed in E. coli BL21 (DE3) cells and incubated at 37 °C until the OD600 value reached 0.6, using 0.2 mM isopropyl β-D-1-thiogalactopyranoside (IPTG) overnight induction at 18 °C. The cells were isolated by centrifugation, resuspended in ice-cold lysis buffer and lysed by cryogenic overpressure cell breaker at 1,200 psi. The lysates were centrifuged for 60 min at 14,000 rpm to obtain the supernatant. Gravity flow purification of Keap1 protein was obtained at room temperature using 1 mL of Ni-NTA and eluted in buffer containing 250 mM imidazole, followed by 1 mL of HiTrap QHP for the second step purification. The final protein was purified and validated by Superdex 200 10/300GL resin.
The mutant plasmid DNA was obtained by PCR. The PCR products were cleaved by DpnI restriction enzymes. The restriction endonuclease-cleaved mixture was subsequently transformed into E. coli DH5α. Colonies were evaluated by colony PCR and sequenced. The mutant plasmid was transformed into E. coli BL21 (DE3) after successful sequencing. The steps for expression and purification of all recombinants were described above.
Isothermal calorimetry (ITC) titration experiments were performed at 25 °C. WT Keap1, Keap1 mutants and PBA were dissolved in binding buffer (40 mM Tris-HCl pH 8.0, 250 mM NaCl). In a typical experiment, 60 μL of PBA (1 mM) was injected 19 times at 2-min intervals from a stirring syringe into the sample cell containing 300 μL of WT protein or mutants (30 μM). The first injection was 0.4 μL of PBA, and the subsequent 18 injections were 2 μL each time. The site-binding models were determined by using MicroCal Origin software.

[2] = system: OGD/R-induced primary mouse cardiomyocytes; assay: OGD/R-induced injury, MTT viability, primary cardiomyocytes; assay type: cell-based; details: 10 and 30 μM, OGD 3 h, reperfusion 18 h
Procedure: The heart was removed from the neonatal C57BL/6 mice and cut into 1 mm^3 pieces in ice […] buffer. The tissues were digested with the mixture of 0.125% trypsin (Gibco, 15090-046) and 0.1% type II collagenase (Gibco, 17101-015) 6 min at 37 °C for three times until the tissues were completely digested. The cells were harvested and seeded in a dish. After 90 min of incubation, the cell culture medium was collected and centrifuged. The centrifuged cardiomyocytes were harvested, seeded on 0.1 % gelatin-coated culture plates with DMEM containing 10% FBS and […] Brdu, and incubated in a 37°C incubator.
Cell viability was determined by MTT assays. PBA was prepared to a stock solution dissolved in dimethyl sulfoxide (DMSO). RAW264.7, H9c2 cells, primary mouse cardiomyocytes were treated with different doses of PBA, and DMSO only as control for 48 h for the toxicity. In addition, H9c2 cells or primary mouse cardiomyocytes were treated with the indicated doses of PBA, diazoxide as positive control, DMSO only as control, then cultured with or without OGD/R treatment. At the end of the experiments, MTT was added into each well at the concentration of 0.5 mg/ml, and incubated at 37 °C for 4 h. […] And the solution was measured at the absorbance of 490 nm by a spectrophotometer (Thermo Fisher Scientific, MA, USA). […]

[3] = system: ROS in H9c2 cells; assay: Intracellular ROS (DCFH-DA), OGD/R H9c2; assay type: cell-based, rat
Procedure: The fluorescent probe DCFH-DA was used to measure intracellular ROS levels. RAW264.7 cells were treated with 100 μg/mL LPS plus ATP as mentioned above. H9c2 cells underwent OGD/R. After the appropriate treatment, the cells were incubated with DCFH-DA at a concentration of 10 μM for 30 min. The cells were washed with PBS three times. A fluorescence microscope and microplate reader were used to measure the level of DCFH-DA fluorescence at the excitation wavelength of 488 nm and the emission wavelength of 525 nm.

T1 sequence (Q14145 whole entry C273S): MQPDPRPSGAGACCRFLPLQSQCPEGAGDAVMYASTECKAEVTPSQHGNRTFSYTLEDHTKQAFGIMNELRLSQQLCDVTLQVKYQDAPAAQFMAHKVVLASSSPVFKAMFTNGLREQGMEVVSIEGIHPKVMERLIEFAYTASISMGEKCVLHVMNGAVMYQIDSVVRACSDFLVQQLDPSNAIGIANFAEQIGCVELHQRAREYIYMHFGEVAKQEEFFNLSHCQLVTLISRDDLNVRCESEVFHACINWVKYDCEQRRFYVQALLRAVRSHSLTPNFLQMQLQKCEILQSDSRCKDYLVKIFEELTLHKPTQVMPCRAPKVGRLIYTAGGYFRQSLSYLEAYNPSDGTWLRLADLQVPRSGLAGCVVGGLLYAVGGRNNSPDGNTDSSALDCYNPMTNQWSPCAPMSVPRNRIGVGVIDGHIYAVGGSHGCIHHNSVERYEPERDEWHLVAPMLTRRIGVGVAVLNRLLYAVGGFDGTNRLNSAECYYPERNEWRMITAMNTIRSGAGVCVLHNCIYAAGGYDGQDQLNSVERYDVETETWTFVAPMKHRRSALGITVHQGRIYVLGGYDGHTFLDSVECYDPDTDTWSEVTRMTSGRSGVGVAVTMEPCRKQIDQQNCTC

Compound: C=C(COC(=O)C=Cc1ccc(O)c(O)c1)C(O)COC1OC(CO)C(O)C(O)C1O (stereo not drawn) [PBA, pubescenoside A]
- Kd [1]: 3.8 µM
- T△S [1]: 3.53 ± 0.00 kcal/mol
- △G [1]: -7.40 ± 0.00 kcal/mol
- △H [1]: -3.87 ± 0.271 kcal/mol
- protection against OGD/R induced injury (cell viability, MTT) [2]: protected
- OGD/R-induced ROS [3]: significantly suppress
